Common to all, as to assay type: functional, cell-based
In one assay the test system is HeLa. The experiment in a line: Cytotoxicity against human HeLa cells by MTT assay. A general note: Tetrazolium assays rely on reduction of a dye to a coloured formazan, in cell work by metabolically active cells.
Assay [1] in a line: Cytotoxicity against human MDA231 cells by MTT assay. The note with it: MDA-MB-231.
Another assay has as its system HT-1080. The experiment in a line: Cytotoxicity against human HT1080 cells by MTT assay.
The subject of another assay is BGC-823. Description: Cytotoxicity against human BGC823 cells by MTT assay.
The subject of a further assay is A549. Description: Cytotoxicity against human A549 cells by MTT assay.
Another assay relates to HepG2. The experiment in a line: Cytotoxicity against human HepG2 cells by MTT assay.
A further assay has as its system MCF7. The experiment in a line: Cytotoxicity against human MCF7 cells by MTT assay.
Assay [2] can be described thus: Cytotoxicity against human A375-S2 cells by MTT assay.
The next assay concerns HEp-2. Description: Cytotoxicity against human Hep2 cells by MTT assay.
The test system of another assay is PC-3. Description: Cytotoxicity against human PC3 cells by MTT assay.

The IC50 is the concentration that gives 50% inhibition. Higher therefore signals weaker potency. Consider `C/C=C(/C)C(=O)O[C@@H]1[C@@H](O)[C@H](O[C@H]2[C@H](OC(C)=O)[C@]3(CO)[C@H](O)C[C@]4(C)C(=CC[C@@H]5[C@@]6(C)CC[C@H](O[C@@H]7O[C@H](C(=O)O)[C@@H](O)[C@H](O)[C@H]7O[C@@H]7O[C@H](CO)[C@@H](O)[C@H](O)[C@H]7O)[C@](C)(CO)[C@@H]6CC[C@]54C)[C@@H]3CC2(C)C)O[C@H](C)[C@@H]1OC(C)=O` [BUNKANKASAPONIN A], for which the half-maximal inhibitory concentration (IC50) in the assay with HeLa turned out to be 22.2 µM; in assay [1], 12.2 µM; with HT-1080, 16.3 µM; in the assay on BGC-823 it was 17.5 µM; in the assay on A549, 41 µM; in the assay with HepG2, 22.2 µM. Further, the half-inhibitory concentration (IC50) in the assay with MCF7 is 12.7 µM; in [2], 18.1 µM; in the assay on HEp-2, 17.6 µM; in the assay with PC-3, 13.1 µM.

With `C/C=C(/C)C(=O)O[C@@H]1[C@@H](O)[C@H](O[C@H]2[C@H](OC(C)=O)[C@]3(CO)[C@H](O)C[C@]4(C)C(=CC[C@@H]5[C@@]6(C)CC[C@H](O[C@@H]7O[C@H](C(=O)O)[C@@H](O)[C@H](O)[C@H]7O[C@@H]7O[C@H](CO)[C@@H](O)[C@H](O)[C@H]7O)[C@](C)(CO)[C@@H]6CC[C@]54C)[C@@H]3CC2(C)C)O[C@H](C)[C@@H]1OC(=O)/C(C)=C\C` [BUNKANKASAPONIN B], the IC50 stood at 4.03 µM in the assay with HeLa; 2.22 µM in assay [1]; 1.14 µM with HT-1080; 2.5 µM in the assay with BGC-823; 3.03 µM in the assay on A549; 4.03 µM with HepG2. For the same compound, the half-inhibitory concentration (IC50) with MCF7 was 2.46 µM; in assay [2], 4.14 µM; in the assay with HEp-2 it was 4.72 µM; in the assay on PC-3 it was 2.58 µM.

For the compound `C/C=C(/C)C(=O)O[C@@H]1[C@@H](O)[C@H](O[C@H]2[C@H](O)[C@]3(COC(C)=O)[C@H](O)C[C@]4(C)C(=CC[C@@H]5[C@@]6(C)CC[C@H](O[C@@H]7O[C@H](C(=O)O)[C@@H](O)[C@H](O)[C@H]7O[C@@H]7O[C@H](CO)[C@@H](O)[C@H](O)[C@H]7O)[C@](C)(CO)[C@@H]6CC[C@]54C)[C@@H]3CC2(C)C)O[C@H](C)[C@@H]1OC(C)=O` [BUNKANKASAPONIN C], the half-maximal inhibitory concentration (IC50) in the assay on HeLa is over 100 µM; in [1], 45.1 µM; in the assay on HT-1080, over 100 µM; in the assay with BGC-823 it was 82.6 µM; in the assay on A549 it was 76.8 µM; with HepG2, 60.8 µM. The 50% inhibitory concentration (IC50) is 91.4 µM with MCF7, 23.3 µM in assay [2], over 100 µM in the assay on HEp-2 and 92.5 µM with PC-3.

For the compound `C/C=C(/C)C(=O)O[C@@H]1[C@@H](O)[C@H](O[C@H]2[C@H](O)[C@]3(COC(C)=O)[C@H](O)C[C@]4(C)C(=CC[C@@H]5[C@@]6(C)CC[C@H](O[C@@H]7O[C@H](C(=O)O)[C@@H](O)[C@H](O)[C@H]7O[C@@H]7O[C@H](CO)[C@@H](O)[C@H](O)[C@H]7O)[C@](C)(CO)[C@@H]6CC[C@]54C)[C@@H]3CC2(C)C)O[C@H](C)[C@@H]1OC(=O)/C(C)=C\C` [BUNKANKASAPONIN D], the half-inhibitory concentration (IC50) was 55.5 µM in the assay with HeLa; 21.8 µM in assay [1]; over 100 µM in the assay on HT-1080; 23.9 µM with BGC-823; 31.7 µM in the assay with A549; 33.1 µM in the assay on HepG2. Besides, the 50% inhibitory concentration (IC50) in the assay with MCF7 is 49.4 µM; in assay [2], 20.4 µM; in the assay on HEp-2 it was over 100 µM; in the assay with PC-3 it was 13.2 µM.

In the case of `C/C=C(/C)C(=O)O[C@@H]1[C@@H](O)[C@H](O[C@H]2[C@H](OC(C)=O)[C@]3(CO)[C@H](O)C[C@]4(C)C(=CC[C@@H]5[C@@]6(C)CC[C@H](O[C@@H]7O[C@H](C(=O)O)[C@@H](O)[C@H](O)[C@H]7O[C@@H]7O[C@H](CO)[C@@H](O)[C@H](O)[C@H]7O)C(C)(C)[C@@H]6CC[C@]54C)[C@@H]3CC2(C)C)O[C@H](C)[C@@H]1OC(=O)/C(C)=C\C` [BUNKANKASAPONIN F], the 50% inhibitory concentration (IC50) in the assay on HeLa amounted to 4.97 µM; in [1] it was 3.24 µM; with HT-1080 it was 1.75 µM; in the assay on BGC-823, 11.3 µM; in the assay on A549 it was 5.76 µM; with HepG2 it was 2.45 µM. Further, the IC50 in the assay with MCF7 is 4.3 µM; in assay [2], 5.22 µM; with HEp-2, 4.97 µM; in the assay with PC-3, 2.28 µM.

As to `O=c1[nH]cc(F)c(=O)[nH]1` [FLUOROURACIL], the IC50 was found to be 10.4 µM in the assay on HeLa; 31.6 µM in assay [1]; 3.06 µM with HT-1080; 15.7 µM with BGC-823; 31.5 µM in the assay with A549; 10.5 µM with HepG2. For the same compound, the IC50 in the assay with MCF7 is 24.6 µM; in assay [2] it was 9.92 µM; in the assay with HEp-2 it was 24.6 µM; in the assay with PC-3, 35.8 µM.

Turning to `CC1(C)C[C@H]2C3=CC[C@@H]4[C@@]5(C)CC[C@H](O[C@@H]6O[C@H](CO[C@@H]7O[C@H](CO)[C@@H](O)[C@H](O)[C@H]7O)[C@@H](O)[C@H](O)[C@H]6O)C(C)(C)[C@@H]5CC[C@@]4(C)[C@]3(C)CC[C@@]2(CO[C@@H]2O[C@H](CO[C@@H]3O[C@H](CO)[C@@H](O)[C@H](O)[C@H]3O)[C@@H](O)[C@H](O)[C@H]2O[C@@H]2O[C@H](CO)[C@@H](O)[C@H](O)[C@H]2O)[C@@H](O)[C@@H]1O` [SORBIFOLIASIDE A], the concentration for half-maximal inhibition (IC50) (with HeLa; in [1]; in the assay with HT-1080; in the assay with BGC-823; in the assay on A549; in the assay with HepG2) was over 100 µM each time. In addition, the IC50 (in the assay on MCF7; in assay [2]; in the assay with HEp-2; in the assay on PC-3) was over 100 µM in each case.

`CC1(C)C[C@H]2C3=CC[C@@H]4[C@@]5(C)CC[C@H](O[C@@H]6O[C@H](CO[C@@H]7O[C@H](CO)[C@@H](O)[C@H](O)[C@H]7O)[C@@H](O)[C@H](O)[C@H]6O)C(C)(C)[C@@H]5CC[C@@]4(C)[C@]3(C)CC(=O)[C@@]2(CO[C@@H]2O[C@H](CO[C@@H]3O[C@H](CO)[C@@H](O)[C@H](O)[C@H]3O)[C@@H](O)[C@H](O)[C@H]2O[C@@H]2O[C@H](CO)[C@@H](O)[C@H](O)[C@H]2O)[C@@H](O)[C@@H]1O` [SORBIFOLIASIDE B]: the IC50 (in the assay on HeLa; in assay [1]; with HT-1080; in the assay with BGC-823; with A549; in the assay with HepG2) was over 100 µM in each case. Further, the concentration for half-maximal inhibition (IC50) (with MCF7; in [2]; in the assay on HEp-2; in the assay on PC-3) was over 100 µM each time.

As for `CC1(C)C[C@H]2C3=CC[C@@H]4[C@@]5(C)CC[C@H](O[C@@H]6O[C@H](CO[C@@H]7O[C@H](CO)[C@@H](O)[C@H](O)[C@H]7O)[C@@H](O)[C@H](O)[C@H]6O[C@@H]6O[C@H](CO)[C@@H](O)[C@H](O)[C@H]6O)C(C)(C)[C@@H]5CC[C@@]4(C)[C@]3(C)CC(=O)[C@@]2(CO[C@@H]2O[C@H](CO[C@@H]3O[C@H](CO)[C@@H](O)[C@H](O)[C@H]3O)[C@@H](O)[C@H](O)[C@H]2O)[C@@H](O)[C@@H]1O` [SORBIFOLIASIDE C], the half-maximal inhibitory concentration (IC50) (with HeLa; in [1]; in the assay on HT-1080; with BGC-823; with A549; in the assay on HepG2) was over 100 µM throughout. Besides, the IC50 (in the assay with MCF7; in assay [2]; in the assay with HEp-2; in the assay on PC-3) was over 100 µM each time.

With `C/C=C(/C)C(=O)O[C@@H]1[C@@H](O)[C@H](O[C@H]2CC[C@]3(C)[C@H]4CC=C5[C@@H]6CC(C)(C)[C@@H](O)[C@H](O)[C@]6(CO[C@@H]6O[C@H](CO[C@@H]7O[C@H](CO)[C@@H](O)[C@H](O)[C@H]7O)[C@@H](O)[C@H](O)[C@H]6O)CC[C@@]5(C)[C@]4(C)CC[C@H]3C2(C)C)O[C@H](CO[C@@H]2O[C@H](CO)[C@@H](O)[C@H](O)[C@H]2O)[C@H]1O` [SORBIFOLIASIDE D], the IC50 (in the assay with HeLa; in assay [1]; in the assay on HT-1080; with BGC-823; in the assay on A549; in the assay on HepG2) was over 100 µM each time. Also, the IC50 (with MCF7; in assay [2]; in the assay on HEp-2; with PC-3) was over 100 µM each time.

On to `C/C=C(/C)C(=O)O[C@@H]1[C@@H](O)[C@H](O[C@H]2CC[C@]3(C)[C@H]4CC=C5[C@@H]6CC(C)(C)[C@@H](O)[C@H](O)[C@]6(CO[C@@H]6O[C@H](CO[C@@H]7O[C@H](CO)[C@@H](O)[C@H](O)[C@H]7O)[C@@H](O)[C@H](O)[C@H]6O)C(=O)C[C@@]5(C)[C@]4(C)CC[C@H]3C2(C)C)O[C@H](CO[C@@H]2O[C@H](CO)[C@@H](O)[C@H](O)[C@H]2O)[C@H]1O` [SORBIFOLIASIDE E], for which the concentration for half-maximal inhibition (IC50) (in the assay on HeLa; in assay [1]; in the assay with HT-1080; in the assay with BGC-823; in the assay with A549; with HepG2) was over 100 µM each time. In addition, the IC50 (in the assay on MCF7; in [2]; in the assay with HEp-2; in the assay with PC-3) was over 100 µM in each case.

The record behind these values is ChEMBL document CHEMBL2057081, “Triterpenoid saponins from Xanthoceras sorbifolia Bunge and their inhibitory activity on human cancer cell lines” (Bioorg Med Chem Lett, 2012).
